Each structure is given as a SMILES string. Calls of active or inactive are those of the source.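 The calls were made as follows: active = CC50, the dose killing half the cells, at or below 10 µM, by curve fit or manual estimate; inactive = CC50 above 10 µM.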

We go through 38 compounds from PubChem BioAssay AID1413 (The Scripps Research Institute Molecular Screening Center, 2008).

The test system of this assay is HeLa viability, CellTiter-Glo ATP luminescence. Description: HeLa cell cytotoxicity, dose response, cytotoxicity control for Wee1 degradation inhibitor project, CellTiter-Glo luminescence (AID 1413). Background: Cellular ATP, detected with luciferase, serves as a proxy for viable cell number.
As a reminder, the CC50 is the concentration at which the toxic effect on the cells reaches its halfway point. As for `Cc1cccn2c1nc(=S)n2C(=O)c1ccco1`, the CC50 was > 49.8 µM (inactive).

Consider `CCN(CC)c1ccc(/C=N/NC(=O)c2cnccn2)cc1`, for which the CC50 is > 49.8 µM (inactive).

On to `COc1cccc(/C=N/NC(=O)c2cc3c(OC)c(OC)ccc3[nH]2)c1OC`, for which the CC50 is > 49.8 µM (inactive).

With `CCOc1cccc(N(C(=O)Cc2cccs2)C(C(=O)NC2CCCCC2)c2cccn2C)c1` (stereo not drawn), the CC50 is > 49.8 µM (inactive).

Consider `Cn1cccc1/C=C1\SC(=Nc2ccccc2)NC1=O`, for which the CC50 was > 49.8 µM (inactive).

Turning to `COc1cc(C2=NOC(C(=O)NCc3cccs3)C2)cc(OC)c1OC` (stereo not drawn), the CC50 was > 49.8 µM (inactive).

In the case of `COc1ccc(NC(=O)/C(Cl)=C(/Cl)S(=O)Cc2ccccc2)cn1` (stereo not drawn), the CC50 was > 16.6 µM (inactive).

In the case of `O=C(COc1ccc(C(=O)c2ccc(F)cc2)cc1)NCc1ccc(F)cc1`, the CC50 was > 49.8 µM (inactive).

As to `CCCCS(=O)(=O)/C=C\C=C/S(=O)(=O)CCCC`, the CC50 is > 16.6 µM (inactive).

For `CC(=O)Nc1ccc(/C=N/Nc2nc3ccccc3s2)cc1`, the CC50 is > 49.8 µM (inactive).

As to `COc1ccc(NC(=O)/C(Cl)=C(/Cl)S(=O)Cc2ccc(C)cc2)cn1` (stereo not drawn), the CC50 was 14.5 µM (inactive).

On to `On1onc2c3cc(-c4ccccc4)nc3ccc21`, for which the CC50 is > 49.8 µM (inactive).

With `Cc1ccc2nc(NCc3ccccc3)[nH]c2c1`, the CC50 is > 49.8 µM (inactive).

On to `O=C(Nc1ccc(Cl)c(Cl)c1)Nc1nccs1`, for which the CC50 is > 49.8 µM (inactive).

Turning to `Cc1cc(Cl)ccc1NC(=S)Nc1ccccn1`, the CC50 is > 49.8 µM (inactive).

With `C=CS(=O)(=O)c1ccc(Oc2ccc(S(=O)(=O)C=C)cc2)cc1`, the CC50 is > 49.8 µM (inactive).

On to `Cc1ccnc(NC(=O)CCCOc2cc(=O)n(C)c3ccccc23)c1`, for which the CC50 is > 49.8 µM (inactive).

Turning to `Cc1ccc(Nc2cc(C)nn2-c2nc(C)cc(=O)[nH]2)cc1`, the CC50 is > 49.8 µM (inactive).

As to `Cc1nc2ccccn2c1-c1csc(Nc2cccc(O)c2)n1`, the CC50 is > 49.8 µM (inactive).

For the compound `O=[N+]([O-])c1ccc(Sc2cccc[n+]2[O-])c2nonc12`, the CC50 was 6.76 µM.

For `COC(=O)C1CCN(C(=O)/C=C/c2ccc(OC)cc2)CC1`, the CC50 was > 49.8 µM (inactive).

As for `O=C(/C=C/c1ccccc1)Nc1ccc(Cl)cn1`, the CC50 was > 49.8 µM (inactive).

For `O=c1[nH]c2ccccc2nc1/C=C(\O)c1cccs1`, the CC50 was > 49.8 µM (inactive).

Consider `CCN(CC)c1ccc(/C=N/NC(=O)c2ccco2)cc1`, for which the CC50 was > 49.8 µM (inactive).

With `CCOC(=O)C1=C(c2ccccc2)O/C(=C(/C#N)C(F)(F)F)S1`, the CC50 was 7.17 µM.

In the case of `Cc1ccc(/C=N/NC(=O)c2ccc3c(c2)OCCO3)s1`, the CC50 was > 49.8 µM (inactive).

With `COc1cccc(C2=CC(c3cccc(OC)c3OC)n3nnnc3N2)c1` (stereo not drawn), the CC50 was > 49.8 µM (inactive).

On to `COc1ccc(Nc2oc(-c3ccc(OC)cc3)nc2C#N)cc1`, for which the CC50 was > 49.8 µM (inactive).

As for `COc1ccc(/C=N/NC(=O)c2ccc3ccccc3c2)cc1OS(=O)(=O)c1ccc(NC(C)=O)cc1`, the CC50 was > 49.8 µM (inactive).

Regarding `CCOC(=O)N1CCN(C(=O)c2cc(-c3ccc(OCC)cc3)nc3ccccc23)CC1`, the CC50 was > 49.8 µM (inactive).

With `O=S(=O)(C/C(=C/CO)S(=O)(=O)c1ccccc1)c1ccccc1`, the CC50 was > 49.8 µM (inactive).

On to `CCCC1=Nc2cc(C(=O)NCc3ccco3)ccc2Sc2ccccc21`, for which the CC50 is > 49.8 µM (inactive).

In the case of `O=C(/C=C/c1cccnc1)/C=C/c1cccnc1`, the CC50 was > 49.8 µM (inactive).

For the compound `Cc1csc2sc(-c3ccnc(SCC(=O)NCc4ccccc4)n3)c(C)c12`, the CC50 is > 49.8 µM (inactive).

With `COc1ccccc1-c1ccc(SCc2ccccc2F)nn1`, the CC50 is > 49.8 µM (inactive).

For the compound `O=C1C=CC(O)(c2cc(=O)c3c(O)cc(O)cc3o2)C=C1`, the CC50 was > 49.8 µM (inactive).

Consider `CCN(CC)S(=O)(=O)c1ccc(C(=O)NCCc2ccccn2)cc1`, for which the CC50 is > 49.8 µM (inactive).

As for `O=C(N=Nc1c(O)[nH]c2ccc(Br)cc12)c1ccccc1-n1cccc1`, the CC50 was > 49.8 µM (inactive).
